Experimental data published in PMC6581923 (Journal of Molecular Neuroscience, 2018).

Experiments:
[1] = Efficiency of Traversing Eye to Retina (EtE) of FITC labeled peptides given in eye drops; format: in vivo, rat (male)
Procedure: In order to trace the drugs, peptides were labeled with fluorescein isothiocyanate (FITC) using a FITC Protein Labeling Kit from ChangRu Biotech Ltd. (Guangzhou, China) according to the manufacturer’s protocol. After the labeling reaction, gel filtration was used to remove the free FITC. In order to determine the amount of the residual free FITC, the peptides were submitted to ultrafiltration using Amicon Ultra – 0.5 mL (Millipore, USA) with a molecular sieve of 2000 Da. After centrifugation (1000×g, 10 min) the peptide was subjected to fluorescence measurements performed with the multi-wavelength scanner Victor 3 (GE, USA) at the excitation of 495 nm and the emission of 520 nm. Protein concentrations were determined using the K4000 Bradford Protein Quantification Kit (Innovative, Guangzhou, China). The labeling efficiency was calculated using the following formula: label efficiency (LE) = fluorescence value (FV)/peptide mass (mol) (PM), representing the fluorescence intensity (AU) per mol of peptide (mol).
Male rats with body weight from 160 to 180 g were purchased from the Medical and Experimental Animal Center (Guangdong, China). Rats were randomly assigned to one of the experimental groups (7 rats per group) and subjected to eye drops with FITC labeled peptides (100 nmol/kg) and PBS as control. Rats were sacrificed by anesthesia 2 h after the eye drop administration and the retina was separated, weighed, washed three times with PBS and divided into two parts. One part was prepared on the glass slide with glycerin and subjected to fluorescence microscopic observation of FITC with 495 nm excitation/520 nm emission. All images, focused on the left upper regions of the retina, were taken with 500 ms exposure time. The other part of the retina was subjected to grinding and ultrasonication in PBS at a concentration of 100 mg weight tissue per milliliter of PBS. The supernatant was collected by centrifugation and the fluorescence intensity in the supernatant (100 uL) was determined. The valid fluorescence intensity (FI) for each sample treated with FITC labeled peptide was corrected by subtracting the fluorescence value of the sample treated with PBS, which was used as a blank background. The Efficiency of Traversing Eye to Retina (EtE) was expressed as the percentages of the FITC labeled peptide mass in the retina to the total FITC labeled peptide mass. The EtE was calculated using the following formula: EtE = tFI/LE/PW × 100% (tFI presents the fluorescence intensity of retina (arbitration unit, AU); LE presents the label efficiency of each peptide which has been determined above; PW presents the peptide mass (mole)).
Fig. 1 The efficiency of FITC labeled PACAP/PACAP-TAT (a, b) and VIP/VIP-TAT (c, d) traversing to retina given in eye drops. The retina was separated 2 h after the eye drops and submitted to the fluorescence microscopic observation of FITC fluorescence signal (A, C) and the calculation of Efficiency of Traversing Eye to Retina (EtE) (b, d). The data are means ± SEM of four experiments

[2] = system: retina (BCCAO-induced retinopathy); assay: Number of cells in retinal nuclear layers and GCL after BCCAO, eye drops; format: in vivo, rat (male); settings: eye drops 1 μg/drop, twice a day, five days, vs BCCAO-induced degenerated retinas, 14 days
Procedure: Adult male rat litters were housed in the animal facility in individual cages in a 12 h light-dark cycle with food and water ad libitum. Animal housing, care and application of experimental procedures were in accordance with institutional guidelines under approved protocols (No: BA02/2000–26/2017, University of Pecs). Under isoflurane anesthesia, common carotid arteries were exposed on both sides through a midline incision and then ligated with a 3–0 filament. A group of animals (sham group) underwent all steps of the operating procedure except ligation of the carotid arteries. Immediately following the operation, the right eye of the animals was treated with derivatives of PACAP (PACAP-TAT /n = 17/ or VIP-TAT /n = 17/) eye drops (1 μg/drop). Dose and schedule of the eye drop treatments were based on our previous experiments (Werling et al. [2016]). In the experiment for histological analysis, the different derivatives were dissolved in benzalkonium solution for ophthalmic use (solutio ophthalmica cum benzalkonio (SOCB)). The left eye, serving as a control, was treated with vehicle containing neither PACAP-TAT nor VIP-TAT. Animals were treated for five consecutive days, twice a day with one drop of drug, under brief isoflurane anesthesia (max. 5 min).
Fourteen days after the operation, rats (n = 10 SHAM and n = 24 BCCAO) were killed with anesthetic and the eyes were processed for histology. The eyes were removed and the retinas were solved in phosphate buffered saline (PBS), fixed in 4% paraformaldehyde dissolved in 0.1 M phosphate buffer (PB) (Sigma, Budapest, Hungary) and embedded in Durcupan ACM resin (Sigma, Budapest, Hungary). Retinas were cut at 2 μm and stained with toluidine blue dye (Sigma, Hungary). Sections were mounted in DPX medium (Sigma, Hungary) and photographs were taken with a digital CCD camera using the Spot program. Central retinal areas within 1 mm from the optic nerve were used (n = 5 measurements from one tissue block). The following parameters were measured: (i) cross-section of the retina from the outer limiting membrane (OLM) to the inner limiting membrane (ILM), (ii) the width of individual retinal layers (outer nuclear layer [ONL], outer plexiform layer [OPL], inner nuclear layer [INL], inner plexiform layer [IPL]), (iii) the number of cells/100 μm section length in the GCL, and the (iv) number of cells/[…]. Results are presented as mean ± SEM. Statistical comparisons were made using the two-way ANOVA test followed by Tukey’s post hoc analysis.
(§1) Fig. 5 Quantification of the number of cells/100 μm GCL length (a), the number of cells/500 μm^2 ONL (b) and INL (c) areas in SHAM+SOCB, in SHAM+PACAP-TAT, in BCCAO+SOCB, and in BCCAO+PACAP-TAT animals. Statistical significance (*p < 0.05 vs. SHAM+SOCB retinas, #p < 0.05 vs. BCCAO+SOCB retinas) was calculated by two-way ANOVA followed by Bonferroni’s post hoc test
as §1, with “Fig. 7” for “Fig. 5”, “in SHAM+VIP-TAT,” for “in SHAM+PACAP-TAT,”, “in BCCAO+VIP-TAT” for “in BCCAO+PACAP-TAT”

SMILES: CC[C@H](C)[C@H](NC(=O)[C@H](CO)NC(=O)[C@H](CC(N)=O)NC(=O)[C@H](CC(C)C)NC(=O)[C@H](Cc1ccc(O)cc1)NC(=O)[C@H](CCCCN)NC(=O)[C@H](CCCCN)NC(=O)[C@@H](NC(=O)[C@H](C)NC(=O)[C@H](CCSC)NC(=O)[C@H](CCC(N)=O)NC(=O)[C@H](CCCCN)NC(=O)[C@H](CCCNC(=N)N)NC(=O)[C@H](CC(C)C)NC(=O)[C@H](CCCNC(=N)N)NC(=O)[C@@H](NC(=O)[C@H](Cc1ccc(O)cc1)NC(=O)[C@H](CC(N)=O)NC(=O)[C@H](CC(=O)O)NC(=O)[C@@H](NC(=O)[C@H](Cc1ccccc1)NC(=O)[C@@H](NC(=O)[C@H](C)NC(=O)[C@H](CC(=O)O)NC(=O)[C@H](CO)NC(=O)[C@@H](N)Cc1c[nH]cn1)C(C)C)[C@@H](C)O)[C@@H](C)O)C(C)C)C(=O)N[C@@H](CC(C)C)C(=O)N[C@@H](CC(N)=O)C(=O)NCC(=O)N[C@@H](CCCNC(=N)N)C(=O)N[C@@H](CCCCN)C(=O)N[C@@H](CCCCN)C(=O)N[C@@H](CCCNC(=N)N)C(=O)N[C@@H](CCCNC(=N)N)C(=O)N[C@@H](CCC(N)=O)C(=O)N[C@@H](CCCNC(=N)N)C(=O)N[C@@H](CCCNC(=N)N)C(=O)N[C@@H](CCCNC(=N)N)C(=O)N1CCC[C@H]1C(=O)N[C@@H](CCC(N)=O)C(=O)O [VIP-TAT]
- Efficiency of Traversing Eye to Retina (EtE) ([1]; FITC labeled peptides, eye drops 100 nmol/kg, retina separated 2 h after, fluorescence 495 nm excitation/520 nm emission, % of FITC labeled peptide mass in retina to total, means ± SEM of four experiments (7 rats per group)): 3.05 ± 0.58%
- EtE relative to the untagged peptide ([1]; PACAP-TAT/VIP-TAT vs PACAP/VIP, respectively, eye drops 100 nmol/kg, 2 h): about three-fold that of PACAP/VIP
- FITC fluorescence density per area unit in the retina ([1]; fluorescence microscopy of retina 2 h after eye drops of FITC labeled peptides (100 nmol/kg), vs PACAP/VIP): much higher than in retinas treated with eye drops of PACAP/VIP
- Number of cells in the GCL/100 μm after BCCAO [2]: reduced cell loss in almost all nuclear layers, except in the ONL/500 μm2
- Number of cells in the INL/500 μm2 after BCCAO [2]: reduced cell loss in almost all nuclear layers, except in the ONL/500 μm2
